The subject of experiment [1] is MOLP-8 cells. In words: MOLP-8 cell proliferation assay (alamarBlue). It is filed as cell-based. Particulars: inhibition of cell proliferation, 120 hours, human multiple myeloma cell line. As for the experimental part:
(§1) In accordance with the invention, the ability of the substances to inhibit cell proliferation was determined Cell viability was determined by means of the alamarBlue® reagent (Invitrogen) in a Victor X3 Multilabel Reader (Perkin Elmer). The excitation wavelength was 530 nm and the emission wavelength […].
The MOLP-8 cells (DSMZ, ACC 569) were sown at a concentration of 4000 cells/well in 100 μl of growth medium (RPMI1640, 20% FCS) on 96-well microtitre plates.
(§2) After overnight incubation at 37° C., the fluorescence values were determined (CI values). Then the plates were treated with various substance dilutions (1E-5 M, 3E-6 M, 1E-6 M, 3E-7 M, 1E-7 M, 3E-8 M, 1E-8 M) and incubated at 37° C. over 96 hours (MOLM-13, B16F10 cells) or 120 hours (MOLP-8 cells). Subsequently, the fluorescence values were determined (CO values). For the data analysis, the CI values were subtracted from the CO values and the results were compared between cells which had been treated with various dilutions of the substance or only with buffer solution. The IC50 values (substance concentration needed for 50% inhibition of cell proliferation) were calculated therefrom.
MOLP-8 human multiple myeloma cell line
In general terms: Resazurin is reduced to fluorescent resorufin, in cell work by metabolically active cells.

The target of experiment [2] is T1, BRD4 Bromo Domain 1 [BRD4(1)] (Homo sapiens, UniProt O60885).
T1 construct: N-terminally His6-tagged BRD4(1) (amino acids 67-152); made in house; host or cells: E. coli
In words: BRD4(1)/acetylated peptide H4 binding assay (TR-FRET). Particulars: inhibition of interaction between His6-tagged BRD4(1) (amino acids 67-152) and acetylated histone H4 peptide. From the text: Protein-Protein Interaction Assay: BRD4/Acetylated Peptide H4 Binding Assay
1. Assay Description for BRD4 Bromo Domain 1 [BRD4(1)]
To assess the BRD4(1) binding strength of the substances described in this application, the ability thereof to inhibit the interaction between BRD4(1) and acetylated histone H4 in a dose-dependent manner was quantified.
For this purpose, a time-resolved fluorescence resonance energy transfer (TR-FRET) assay was used, which measures the binding between N-terminally His6-tagged BRD4(1) (amino acids 67-152) and a synthetic acetylated histone H4 (Ac-H4) peptide with sequence GRGK(Ac)GGK(Ac)GLGK(Ac)GGAK(Ac)RHGSGSK-biotin. The recombinant BRD4(1) protein produced in house according to Filippakopoulos et al., Cell, 2012, 149:214-231 was expressed in E. coli and purified by means of (Ni-NTA) affinity and (Sephadex G-75) size exclusion chromatography. The Ac-H4 peptide can be purchased, for example, from Biosyntan (Berlin, Germany).
In the assay, typically 11 different concentrations of each substance (0.1 nM, 0.33 nM, 1.1 nM, 3.8 nM, 13 nM, 44 nM, 0.15 μM, 0.51 μM, 1.7 μM, 5.9 μM and 20 μM) were analysed as duplicates on the same microtitre plate. For this purpose, 100-fold concentrated solutions in DMSO were prepared by serial dilutions (1:3.4) of a 2 mM stock solution into a clear, 384-well microtitre plate (Greiner Bio-One, Frickenhausen, Germany). From this, 50 nl were transferred into a black test plate (Greiner Bio-One, Frickenhausen, Germany). The test was started by the addition of 2 μl of a 2.5-fold concentrated BRD4(1) solution (final concentration typically 10 nM in the 5 μl of reaction volume) in aqueous assay buffer [50 mM HEPES pH 7.5, 50 mM sodium chloride (NaCl), 0.25 mM CHAPS and 0.05% serum albumin (BSA)] to the substances in the test plate. This was followed by a 10-minute incubation step at 22° C. for the pre-equilibration of putative complexes between BRD4(1) and the substances.
The mixture was then incubated in the dark at 22° C. for one hour and then at 4° C. for at least 3 hours and for no longer than overnight. The formation of BRD4(1)/Ac-H4 complexes was determined by the measurement of the resonance energy transfer from the streptavidin-Eu cryptate to the anti-6His-XL665 antibody present in the reaction. For this purpose, the fluorescence emission was measured at 620 nm and 665 nm after excitation at 330-350 nm in a TR-FRET measuring instrument, for example a Rubystar or Pherastar (both from BMG Lab Technologies, Offenburg, Germany) or a Viewlux (Perkin-Elmer). The ratio of the emissions at 665 nm and at 622 nm was taken as an indicator of the amount of BRD4(1)/Ac-H4 complexes formed.
The data (ratios) obtained were normalized, with 0% inhibition corresponding to the mean from the measurements for a set of controls (typically 32 data points) in which all the reagents were present. In these, in place of test substances, 50 nl of DMSO (100%) were used Inhibition of 100% corresponded to the mean from the measurements for a set of controls (typically 32 data points) in which all the reagents except BRD4(1) were present. The IC50 was determined by regression analysis based on a 4-parameter equation (minimum, maximum, IC50, Hill; Y=max+(min−max)/(1+(X/IC50)Hill).
Background: In TR-FRET formats the signal depends on donor and acceptor labels being close together.

For experiment [3], the system named is MOLM-13 cells. Put plainly: MOLM-13 cell proliferation assay (alamarBlue). The experiment is classed as cell-based. The conditions noted are these: inhibition of cell proliferation, 96 hours, human AML cell line. The procedure: as §1
The MOLM-13 cells (DSMZ, ACC 554) were sown at a concentration of 4000 cells/well in 100 μl of growth medium (RPMI1640, 10% FCS) on 96-well microtitre plates.
as §2
MOLM-13 human AML (acute myeloid leukaemia) cell line

Experiment [4] concerns B16F10 cells. In words: B16F10 cell proliferation assay (alamarBlue). The experiment is classed as cell-based. Particulars: B16-F10; inhibition of cell proliferation, 96 hours, mouse melanoma cell line. The procedure: as §1
The B16F10 cells (ATCC, CRL-6475) were sown at a concentration of 300-500 cells/well in 100 μl of growth medium (DMEM with phenol red, 10% FCS) on 96-well microtitre plates.
as §2
B16F10 mouse melanoma cell line

The term IC50 denotes the point on the concentration scale where inhibition reaches its midpoint. A low value points to higher potency.

On to `C[C@@H]1C(=O)N(C)c2ccc(Nc3ccc(C(=O)NC4CCN(C)CC4)cc3)cc2N1C1CCCC1` [Example 4, 4-{[(3R)-4-cyclopentyl-1,3-dimethyl-2-oxo-1,2,3,4-tetrahydroquinoxalin-6-yl]amino}-N-(1-methylpiperidin-4-yl)benzamide], for which the concentration for half-maximal inhibition (IC50) stood at 0.468 µM in experiment [1], 0.05 µM in experiment [2], 0.356 µM in experiment [3] and 0.643 µM in experiment [4].
